Results on one compound are retold here after patent publication US5866575A, “Method of inhibiting HIV integrase” (Lundblad; Leif J. I., priority 1994, dated 1999).

The test system of one series is rats. In words: Acute toxicity. The format is in vivo.
Series [1] can be described thus: General toxicity after repeated administration, rabbits. As to conditions: rabbit, in vivo, topical or ocular, dermal, for 28 days, repeated administration (except for local toxicity), read-out: NOEL (no observable effect level) dermal. The source says: (§1) General toxicity after repeated administration NOEL (no observable effect level)
Series [2] can be described thus: General toxicity after repeated administration, rats. To be noted: rat, in vivo, iv, for 28 days, read-out: NOEL (no observable effect level) i.v.
From the text: as §1

Each structure is given as a SMILES string. A value given as a limit tells only on which side of the number the result lay.

In turn, `Cc1cc2nc3c4ccccc4n(CCN(C)C)c3nc2cc1C` [compound II, 2,3-dimethyl-6-(N,N-dimethylaminoethyl)-6H-indoloquinoxaline] returned an LD i.v. in the series on rats (i.v.) of over 100 mg/kg. This compound also registered an LD p.o. in the series on rats (p.o.) of over 800 mg/kg. In addition, the NOAEL at 672 h stood at 200 mg/kg in series [1] and 12.5 mg/kg in series [2].
